The text below walks through data of publication PMC4129416, “YLT192, a Novel, Orally Active Bioavailable Inhibitor of VEGFR2 Signaling with Potent Antiangiogenic Activity and Antitumor Efficacy in Preclinical Models” (Scientific Reports, 2014).

Test [1] addresses T1, mTOR (Homo sapiens, UniProt P42345).
T1 construct: purchased Millipore (Kinase Profile Service, UK)
As to the kind of experiment: Radiometric kinase assay (Millipore Kinase Profile Service). The settings on record: means ± SD, two independent experiments, read-out: inhibition rate at 1 μM (%). It is filed as biochemical. As for the experimental part: (§1) YLT192 was designed and synthesized in the State Key Laboratory of Biotherapy, Sichuan University (Sichuan, China). Its structural formula and synthesis route was shown in Fig. 1A and Supplementary Figure S1, respectively. The kinase inhibitory activity of YLT192 was measured by the use of radiometric assays provided by Kinase Profile Service (Millipore, UK). The effects of YLT192 on kinase activity were detected using the scintillation proximity assay method at an enzymatic level. […] In addition, the inhibitory activity of YLT192 was examined against platelet-derived growth factor receptor (PDGFR)-related kinases because of their structural similarity to the VEGFR2. […] Moreover, excellent selectivity for VEGFR2 was evident compared with a range of unrelated tyrosine and serine/threonine kinases, including fibroblast growth factor receptor 3, polo-like kinase 1, aurora-A, Axl, MET, protein kinase A, c-RAF etc.

In test [2] the target is T2, cKit (Homo sapiens, UniProt P10721).
T2 construct: purchased Millipore (Kinase Profile Service, UK)
The description is as above. The note with it: means ± SD, two independent experiments, read-out: inhibition rate at 1 μM (%). Type of test: biochemical. On the procedure:
as §1

Test [3] addresses T3, PDGFRα (Homo sapiens, UniProt P16234).
T3 construct: purchased Millipore (Kinase Profile Service, UK)
Described as above. It is filed as biochemical. The note with it: means ± SD, two independent experiments, read-out: inhibition rate at 1 μM (%). On the procedure: as §1

The target of test [4] is T4, IR (Homo sapiens, UniProt P06213).
T4 construct: purchased Millipore (Kinase Profile Service, UK)
The test is described as above. Type of test: biochemical. The settings on record: means ± SD, two independent experiments, read-out: inhibition rate at 1 μM (%). As for the experimental part:
as §1

Test [5] addresses T5, c-RAF (Homo sapiens, UniProt P04049, Y340D/Y341D).
T5 construct: purchased Millipore (Kinase Profile Service, UK)
The description is as above. Type of test: biochemical. The note with it: means ± SD, two independent experiments, read-out: inhibition rate at 1 μM (%). On the procedure:
as §1

Test [6] deals with T6, Plk1 (Homo sapiens, UniProt P53350).
T6 construct: purchased Millipore (Kinase Profile Service, UK)
Described as above. Type of test: biochemical. The note with it: means ± SD, two independent experiments, read-out: inhibition rate at 1 μM (%). As for the experimental part:
as §1

The test system of test [7] is PI3K. The description is as above. Type of test: biochemical. The note with it: means ± SD, two independent experiments. On the procedure: as §1
Test [8] addresses T7, FGFR3 (Homo sapiens, UniProt P22607).
T7 construct: purchased Millipore (Kinase Profile Service, UK)
The description is as above. It is filed as biochemical. The note with it: means ± SD, two independent experiments, read-out: inhibition rate at 1 μM (%). On the procedure:
as §1

For test [9], the target named is T8, CDK6/cyclinD3 (Homo sapiens, UniProt Q00534).
T8 construct: purchased Millipore (Kinase Profile Service, UK)
T8 sequence (Q00534 whole entry): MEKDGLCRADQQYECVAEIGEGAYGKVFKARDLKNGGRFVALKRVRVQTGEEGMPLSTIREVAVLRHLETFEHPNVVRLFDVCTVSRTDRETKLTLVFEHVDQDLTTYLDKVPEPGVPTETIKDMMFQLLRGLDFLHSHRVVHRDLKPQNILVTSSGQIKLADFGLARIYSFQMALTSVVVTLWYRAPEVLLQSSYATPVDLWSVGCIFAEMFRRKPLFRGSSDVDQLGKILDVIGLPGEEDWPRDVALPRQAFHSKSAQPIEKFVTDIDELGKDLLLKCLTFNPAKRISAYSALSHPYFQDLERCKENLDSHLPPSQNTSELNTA
T8 sequence (P30281 whole entry partner): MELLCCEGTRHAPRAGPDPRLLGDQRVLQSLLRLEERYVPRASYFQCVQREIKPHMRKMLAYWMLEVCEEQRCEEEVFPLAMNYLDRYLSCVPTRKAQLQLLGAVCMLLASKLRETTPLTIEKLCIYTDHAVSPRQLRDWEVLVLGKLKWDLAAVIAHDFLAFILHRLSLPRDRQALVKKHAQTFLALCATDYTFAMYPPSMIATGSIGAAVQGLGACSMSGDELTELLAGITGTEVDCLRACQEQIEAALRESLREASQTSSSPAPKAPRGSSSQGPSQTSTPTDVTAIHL
The test is described as above. It is filed as biochemical. The note with it: means ± SD, two independent experiments, read-out: inhibition rate at 1 μM (%). On the procedure: as §1

Test [10] addresses T9, ALK (Homo sapiens, UniProt Q9UM73).
T9 construct: purchased Millipore (Kinase Profile Service, UK)
Described as above. It is filed as biochemical. The settings on record: means ± SD, two independent experiments, read-out: inhibition rate at 1 μM (%). On the procedure:
as §1

Test [11] deals with T10, JAK3 (Homo sapiens, UniProt P52333).
T10 construct: purchased Millipore (Kinase Profile Service, UK)
The test is described as above. The settings on record: means ± SD, two independent experiments, read-out: inhibition rate at 1 μM (%). Type of test: biochemical. On the procedure:
as §1

Test [12] concerns the target T11, LCK (Homo sapiens, UniProt P06239).
T11 construct: purchased Millipore (Kinase Profile Service, UK)
The description is as above. It is filed as biochemical. The note with it: means ± SD, two independent experiments, read-out: inhibition rate at 1 μM (%). As for the experimental part: as §1

The target of test [13] is T12, Axl (Homo sapiens, UniProt P30530).
T12 construct: purchased Millipore (Kinase Profile Service, UK)
The test is described as above. It is filed as biochemical. The note with it: means ± SD, two independent experiments, read-out: inhibition rate at 1 μM (%). On the procedure:
as §1

For test [14], the target named is T13, Flt3 (Homo sapiens, UniProt P36888).
T13 construct: purchased Millipore (Kinase Profile Service, UK)
T13 sequence (P36888 27-993): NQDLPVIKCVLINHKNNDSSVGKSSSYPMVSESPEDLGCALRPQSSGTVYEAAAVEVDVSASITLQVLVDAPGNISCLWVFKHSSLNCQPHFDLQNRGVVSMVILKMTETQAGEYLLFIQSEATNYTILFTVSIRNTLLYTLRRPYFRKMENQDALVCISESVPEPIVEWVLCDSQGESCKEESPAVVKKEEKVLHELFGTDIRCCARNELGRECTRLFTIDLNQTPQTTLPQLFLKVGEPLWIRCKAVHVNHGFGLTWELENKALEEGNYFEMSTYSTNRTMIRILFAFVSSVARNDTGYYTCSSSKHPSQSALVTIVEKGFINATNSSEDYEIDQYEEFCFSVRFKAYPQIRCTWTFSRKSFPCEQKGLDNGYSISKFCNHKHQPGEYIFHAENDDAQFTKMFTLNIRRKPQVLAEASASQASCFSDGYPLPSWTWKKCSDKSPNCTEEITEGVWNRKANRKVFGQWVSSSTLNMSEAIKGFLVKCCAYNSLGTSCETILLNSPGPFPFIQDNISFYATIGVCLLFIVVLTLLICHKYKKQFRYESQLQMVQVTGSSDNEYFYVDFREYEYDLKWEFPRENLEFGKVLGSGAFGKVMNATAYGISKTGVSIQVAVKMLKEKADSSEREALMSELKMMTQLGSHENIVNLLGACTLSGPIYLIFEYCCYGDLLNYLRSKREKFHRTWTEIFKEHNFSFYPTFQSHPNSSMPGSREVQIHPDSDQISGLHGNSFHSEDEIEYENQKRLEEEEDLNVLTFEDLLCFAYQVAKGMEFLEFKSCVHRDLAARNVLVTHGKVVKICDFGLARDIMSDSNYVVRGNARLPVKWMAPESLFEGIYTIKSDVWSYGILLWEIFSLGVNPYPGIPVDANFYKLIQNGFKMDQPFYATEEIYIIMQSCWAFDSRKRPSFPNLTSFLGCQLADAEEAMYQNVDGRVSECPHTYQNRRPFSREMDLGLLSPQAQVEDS
The description is as above. Type of test: biochemical. The note with it: means ± SD, two independent experiments. As for the experimental part:
as §1

Test [15] addresses T14, EGFR (Homo sapiens, UniProt P00533).
T14 construct: purchased Millipore (Kinase Profile Service, UK)
The description is as above. Type of test: biochemical. The note with it: means ± SD, two independent experiments, read-out: inhibition rate at 1 μM (%). As for the experimental part:
as §1

The target of test [16] is T15, JNK3 (Homo sapiens, UniProt P53779).
T15 construct: purchased Millipore (Kinase Profile Service, UK)
The description is as above. It is filed as biochemical. The note with it: means ± SD, two independent experiments, read-out: inhibition rate at 1 μM (%). As for the experimental part: as §1

For test [17], the target named is T16, Ret (Homo sapiens, UniProt P07949).
T16 construct: purchased Millipore (Kinase Profile Service, UK)
The description is as above. Type of test: biochemical. The note with it: means ± SD, two independent experiments, read-out: inhibition rate at 1 μM (%). As for the experimental part: as §1

The target in test [18] is T17, IKKβ (Homo sapiens, UniProt O14920).
T17 construct: purchased Millipore (Kinase Profile Service, UK)
The test is described as above. It is filed as biochemical. The note with it: means ± SD, two independent experiments, read-out: inhibition rate at 1 μM (%). On the procedure: as §1

The target in test [19] is T18, FGFR1 (Homo sapiens, UniProt P11362).
T18 construct: purchased Millipore (Kinase Profile Service, UK)
Described as above. The note with it: means ± SD, two independent experiments, read-out: inhibition rate at 1 μM (%). It is filed as biochemical. On the procedure: as §1

Test [20] has as its target T19, FGFR2 (Homo sapiens, UniProt P21802).
T19 construct: purchased Millipore (Kinase Profile Service, UK)
The test is described as above. It is filed as biochemical. The note with it: means ± SD, two independent experiments, read-out: inhibition rate at 1 μM (%). As for the experimental part: as §1

Test [21] has as its system alginate beads containing CT26 tumor cells. As to the kind of experiment: Alginate-encapsulated tumor cell assay. It is filed as in vivo, mice. The note with it: 100 mg/kg oral once daily, 14 days, vs vehicle. As for the experimental part:
Figure 3 YLT192 inhibited angiogenesis in vivo. (A) Fluorescent images of 30 hpf zebrafish treated with vehicle or concentrations of YLT192. ISV growth was inhibited by YLT192. One representative experiment of three is shown. Data are means ± SEM (n = 10 per group), *P < 0.05, **P < 0.01. Scale bars represent 100 μm. […] Frozen sections of HCT116 tumors were tested by immunohistochemistry analysis with anti-CD31 antibody. Representative images of the tumor vasculature from vehicle and YLT192 treated mice were shown. The fields were averaged in each tumor, and the averages for each animal were used to give the final mean ± SD (n = 6 mice per group). *P < 0.05, **P < 0.01. Scale bars represent 100 μm. […] Alginate beads containing 5 × 10^4 CT26 cells were implanted s.c. into the backs of mice. Mice were then orally treated with YLT192 or vehicle once daily. Beads were surgically removed 14 days later and FITC-dextran was quantified. […] Data are means ± SD (n = 6 mice per group), *P < 0.05, **P < 0.01. Scale bars represent 500 μm.
To determine whether YLT192 could inhibit angiogenesis induced by tumor cells in vivo, we did the alginate-encapsulated tumor cell assay as described previously. […] The content of FITC-dextran in the beads was quantified as described previously.

The subject of test [22] is HUVEC. As to the kind of experiment: EdU incorporation assay, VEGF165-stimulated HUVEC. Type of test: cell-based, human. On the procedure: The inhibition effect of YLT192 on VEGF165-stimulated HUVEC growth was examined using MTT assay.
EdU is a thymidine analogue used to label proliferating cells which can incorporate into replication DNA when cells are dividing. Cells growing in 96-well plates were treated with different concentrations of YLT192 for 24 hours, and then assayed with Cell-Light™ EdU DNA Cell Proliferation Kit according to the manufacture's instructions. Each assay was replicated 3 times.
Supplementary Figure S2. YLT192 inhibited VEGF-stimulated HUVECs proliferation in the EdU incorporation assay. The EdU-positive(red ﬂuorescent staining) cells and Hoechst staining(blue ﬂuorescent staining) cells represented proliferating and total cells, respectively(100×). Quantification was shown on the right panels. Data represent the mean ± SEM of three different experiments. Each experiment was performed in duplicate. *P<0.05, **P<0.01. […]

“And” between values parts separate entries of the source, which are not always exact repeats. Identical values can stand only once.

T14 sequence (P00533 25-1210): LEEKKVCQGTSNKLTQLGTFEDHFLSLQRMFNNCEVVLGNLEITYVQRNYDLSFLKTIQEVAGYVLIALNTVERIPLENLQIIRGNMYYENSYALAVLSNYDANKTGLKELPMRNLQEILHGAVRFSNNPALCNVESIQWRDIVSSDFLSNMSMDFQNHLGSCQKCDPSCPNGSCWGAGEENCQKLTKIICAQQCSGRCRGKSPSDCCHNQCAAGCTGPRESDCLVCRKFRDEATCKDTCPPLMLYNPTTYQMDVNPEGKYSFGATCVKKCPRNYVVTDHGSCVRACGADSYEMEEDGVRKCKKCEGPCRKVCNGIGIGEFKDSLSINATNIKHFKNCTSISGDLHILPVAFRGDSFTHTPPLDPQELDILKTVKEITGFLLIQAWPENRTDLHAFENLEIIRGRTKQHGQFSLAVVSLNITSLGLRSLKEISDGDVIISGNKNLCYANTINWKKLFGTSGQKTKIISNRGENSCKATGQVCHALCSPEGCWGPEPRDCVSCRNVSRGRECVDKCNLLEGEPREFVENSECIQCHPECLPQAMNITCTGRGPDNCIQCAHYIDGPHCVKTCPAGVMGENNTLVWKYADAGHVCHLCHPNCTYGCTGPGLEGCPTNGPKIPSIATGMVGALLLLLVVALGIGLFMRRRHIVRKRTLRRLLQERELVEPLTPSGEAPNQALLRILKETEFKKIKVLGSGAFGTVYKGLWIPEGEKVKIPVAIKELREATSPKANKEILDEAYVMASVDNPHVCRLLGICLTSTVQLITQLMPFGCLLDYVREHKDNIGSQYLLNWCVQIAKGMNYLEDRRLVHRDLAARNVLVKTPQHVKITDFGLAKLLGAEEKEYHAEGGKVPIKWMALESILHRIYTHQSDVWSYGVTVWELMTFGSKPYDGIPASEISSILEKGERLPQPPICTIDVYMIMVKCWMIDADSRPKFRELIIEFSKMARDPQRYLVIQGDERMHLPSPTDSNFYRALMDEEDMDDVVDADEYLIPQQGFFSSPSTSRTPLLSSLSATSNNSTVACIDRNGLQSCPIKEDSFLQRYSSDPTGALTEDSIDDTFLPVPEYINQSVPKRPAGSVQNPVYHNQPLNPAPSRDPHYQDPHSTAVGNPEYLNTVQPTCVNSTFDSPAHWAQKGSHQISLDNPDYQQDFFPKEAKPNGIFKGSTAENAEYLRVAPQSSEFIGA
T9 sequence (Q9UM73 19-1620): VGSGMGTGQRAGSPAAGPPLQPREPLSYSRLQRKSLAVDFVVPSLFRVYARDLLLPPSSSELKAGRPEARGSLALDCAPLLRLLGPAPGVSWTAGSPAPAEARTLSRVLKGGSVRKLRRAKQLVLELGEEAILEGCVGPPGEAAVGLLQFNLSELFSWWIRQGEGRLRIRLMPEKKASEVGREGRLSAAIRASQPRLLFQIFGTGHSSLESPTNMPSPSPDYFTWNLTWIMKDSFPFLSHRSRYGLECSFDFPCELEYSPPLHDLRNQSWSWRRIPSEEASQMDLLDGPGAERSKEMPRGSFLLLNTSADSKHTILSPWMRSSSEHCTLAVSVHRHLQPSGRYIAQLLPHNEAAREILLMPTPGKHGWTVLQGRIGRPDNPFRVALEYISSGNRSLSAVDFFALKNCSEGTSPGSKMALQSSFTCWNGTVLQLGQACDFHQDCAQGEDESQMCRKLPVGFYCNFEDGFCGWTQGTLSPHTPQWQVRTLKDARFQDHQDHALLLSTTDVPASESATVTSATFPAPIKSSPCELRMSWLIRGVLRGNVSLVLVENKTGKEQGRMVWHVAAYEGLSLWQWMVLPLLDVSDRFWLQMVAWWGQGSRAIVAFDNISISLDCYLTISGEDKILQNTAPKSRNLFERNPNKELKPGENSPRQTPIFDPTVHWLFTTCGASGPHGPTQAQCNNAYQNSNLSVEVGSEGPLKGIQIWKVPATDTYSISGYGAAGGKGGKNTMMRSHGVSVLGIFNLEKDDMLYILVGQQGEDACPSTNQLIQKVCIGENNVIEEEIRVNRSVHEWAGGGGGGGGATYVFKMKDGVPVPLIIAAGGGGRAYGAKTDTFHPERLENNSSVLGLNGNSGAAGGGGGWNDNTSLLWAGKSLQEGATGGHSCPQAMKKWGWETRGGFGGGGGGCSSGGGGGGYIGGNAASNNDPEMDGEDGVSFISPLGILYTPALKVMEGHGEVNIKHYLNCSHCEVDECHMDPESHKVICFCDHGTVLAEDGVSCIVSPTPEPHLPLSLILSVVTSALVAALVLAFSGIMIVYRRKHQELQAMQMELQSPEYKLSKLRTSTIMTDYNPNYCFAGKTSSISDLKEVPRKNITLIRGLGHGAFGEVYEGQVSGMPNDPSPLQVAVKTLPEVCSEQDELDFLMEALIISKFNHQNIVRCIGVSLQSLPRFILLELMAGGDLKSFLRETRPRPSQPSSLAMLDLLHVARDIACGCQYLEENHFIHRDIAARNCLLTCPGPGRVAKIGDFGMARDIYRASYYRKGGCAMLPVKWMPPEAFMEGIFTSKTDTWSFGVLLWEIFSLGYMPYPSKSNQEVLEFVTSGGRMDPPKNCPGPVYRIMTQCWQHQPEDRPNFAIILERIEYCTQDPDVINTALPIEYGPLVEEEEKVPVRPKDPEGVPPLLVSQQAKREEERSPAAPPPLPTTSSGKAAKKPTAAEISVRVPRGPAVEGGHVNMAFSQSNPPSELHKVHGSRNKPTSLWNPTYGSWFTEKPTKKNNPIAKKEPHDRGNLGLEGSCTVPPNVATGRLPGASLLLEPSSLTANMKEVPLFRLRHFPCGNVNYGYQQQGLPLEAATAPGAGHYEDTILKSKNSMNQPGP
T5 sequence (P04049 306-648 Y340D/Y341D limits assumed): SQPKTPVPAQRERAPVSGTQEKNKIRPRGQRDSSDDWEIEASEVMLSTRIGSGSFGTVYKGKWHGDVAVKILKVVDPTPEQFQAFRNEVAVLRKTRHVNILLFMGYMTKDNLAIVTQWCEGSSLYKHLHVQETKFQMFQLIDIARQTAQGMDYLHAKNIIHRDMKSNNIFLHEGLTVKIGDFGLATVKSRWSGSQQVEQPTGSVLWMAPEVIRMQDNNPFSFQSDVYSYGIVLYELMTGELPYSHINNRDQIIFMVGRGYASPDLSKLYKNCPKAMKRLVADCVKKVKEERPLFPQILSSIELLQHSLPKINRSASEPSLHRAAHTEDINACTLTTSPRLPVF

Take `CNC(=O)c1cc(Oc2ccc(NC(=O)c3cccc(OC)c3)cc2)ccn1` [YLT192]: the inhibition (commonly the change of the read-out against control, counted positive when it falls) at 1 µM was found to be 0% in test [1]; 6 ± 3% in test [2]; 5 ± 3% in test [3]; 3 ± 3% in test [4]; 3 ± 3% in [5]; 1 ± 3% in test [6]. In addition, the inhibition at 1 µM in test [8] was 4 ± 6%; in [9], 0%; in test [10] it was -4 ± 3%; in test [11], -7 ± 4%; in test [12] it was 3 ± 6%; in test [13], -7 ± 7%. Also, the inhibition at 1 µM in test [15] turned out to be 1 ± 6%; in [16], 3 ± 5%; in test [17] it was 23 ± 3%; in test [18], 2 ± 6%; in test [19], 21 ± 3%; in test [20], 19 ± 4%. Moreover, the “inhibition rate at 1 μM (%)” value was 0 ± 2% in test [7]; 0% and −6 ± 2% in [14]. For the same molecule, the “reduction of accumulation of FITC-dextran” value in [21] worked out at 66%. Moreover, the “VEGF165-stimulated HUVEC proliferation, EdU incorporation” value in [22] is “inhibited VEGF165-stimulated HUVEC proliferation”.
